According to patent US20190152957A1, “PYRIDIN-3-YL ACETIC ACID DERIVATIVES AS INHIBITORS OF HUMAN IMMUNODEFICIENCY VIRUS REPLICATION” (ViiV HEALTHCARE UK (NO.5) LIMITED, priority 2016, published 2019):
Read-outs that look alike come from different tables or passages of the source.

System: recombinant NL-RLuc virus (HIV NL4-3 with Renilla Luciferase gene) in MT-2 cells
Experiment: Inhibition of HIV replication (NL-RLuc virus, luciferase readout in MT-2 cells)
Type: cell-based
Conditions: MT2, 120 h
From the text: Inhibition of HIV Replication:
A recombinant NL-RLuc proviral clone was constructed in which a section of the nef gene from NL4-3 was replaced with the Renilla Luciferase gene. This virus is fully infectious and can undergo multiple cycles of replication in cell culture. In addition, the luciferous reporter provides a simple and easy method for quantitating the extent of virus growth and consequently, the antiviral activity of test compounds. The plasmid pNLRLuc contains the proviral NL-Rluc DNA cloned into pUC18 at the PvuII site. The NL-RLuc virus was prepared by transfection of 293T cells with the plasmid pNLRLuc. Transfections were performed using the LipofectAMINE PLUS kit from Invitrogen (Carlsbad, Calif.) according to the manufacturer and the virus generated was titered in MT-2 cells. For susceptibility analyses, the titrated virus was used to infect MT-2 cells in the presence of compound, and after 5 days of incubation, cells were processed and quantitated for virus growth by the amount of expressed luciferase. Assay media was RPMI 1640 supplemented with 10% heat inactivated fetal bovine serum (FBS), 100 units/ml penicillin G/100 units/ml streptomycin, 10 mM HEPES buffer pH 7.55 and 2 mM L-glutamine. The results from at least 2 experiments were used to calculate the EC50 values. Luciferase was quantitated using the Dual Luciferase kit from Promega (Madison, Wis.). Susceptibility of viruses to compounds was determined by incubation in the presence of serial dilutions of the compound. The 50% effective concentration (EC50) was calculated by using the exponential form of the median effect equation where (Fa)=1/[1+(ED50/drug conc.)^m](Johnson V A, Byington R T. Infectivity Assay. In Techniques in HIV Research. ed. Aldovini A, Walker BD. 71-76. New York: Stockton Press. 1990). Activity equal to A refers to a compound having an EC50≤100 nM, while B and C denote compounds having an EC50 between 100 nM and 1 uM (B) or >1 uM (C).

Row | Compound | EC50 (read-out: Activity) [µM] | EC50 (read-out: EC50 μM) [µM]
1 | Cc1nc(C)c([C@H](OC(C)(C)C)C(=O)O)c(N2CCC(C)(C)CC2)c1-c1ccc2c(c1)CCN(CC1CCCOC1)C2 (stereo partly drawn) [Compound 1, (2S)-2-(tert-butoxy)-2-(4-(4,4-dimethylpiperidin-1-yl)-2,6-dimethyl-5-(2-((tetrahydro-2H-pyran-3-yl)methyl)-1,2,3,4-tetrahydroisoquinolin-6-yl)pyridin-3-yl)acetic acid] | < 0.1 | 0.028
2 | CCn1cc(CN2CCc3cc(-c4c(C)nc(C)c([C@H](OC(C)(C)C)C(=O)O)c4N4CCC(C)(C)CC4)ccc3C2)cn1 [Compound 44, (S)-2-(tert-butoxy)-2-(4-(4,4-dimethylpiperidin-1-yl)-5-(2-((1-ethyl-1H-pyrazol-4-yl)methyl)-1,2,3,4-tetrahydroisoquinolin-6-yl)-2,6-dimethylpyridin-3-yl)acetic acid] | < 0.1 | –
3 | Cc1ncsc1CN1CCc2cc(-c3c(C)nc(C)c([C@H](OC(C)(C)C)C(=O)O)c3N3CCC(C)(C)CC3)ccc2C1 [Compound 8, (S)-2-(tert-butoxy)-2-(4-(4,4-dimethylpiperidin-1-yl)-2,6-dimethyl-5-(2-((4-methylthiazol-5-yl)methyl)-1,2,3,4-tetrahydroisoquinolin-6-yl)pyridin-3-yl)acetic acid] | < 0.1 | 0.002
4 | COc1ncc(CN2CCc3cc(-c4c(C)nc(C)c([C@H](OC(C)(C)C)C(=O)O)c4N4CCC(C)(C)CC4)ccc3C2)cn1 [Compound 33, (S)-2-(tert-butoxy)-2-(4-(4,4-dimethylpiperidin-1-yl)-5-(2-((2-methoxypyrimidin-5-yl)methyl)-1,2,3,4-tetrahydroisoquinolin-6-yl)-2,6-dimethylpyridin-3-yl)acetic acid] | < 0.1 | 0.008
5 | Cc1nc(C)c([C@H](OC(C)(C)C)C(=O)O)c(N2CCC(C)(C)CC2)c1-c1ccc2c(c1)CCN(Cc1ccc(C(F)(F)F)nc1)C2 [Compound 34, (S)-2-(tert-butoxy)-2-(4-(4,4-dimethylpiperidin-1-yl)-2,6-dimethyl-5-(2-((6-(trifluoromethyl)pyridin-3-yl)methyl)-1,2,3,4-tetrahydroisoquinolin-6-yl)pyridin-3-yl)acetic acid] | < 0.1 | –
6 | Cc1nc(C)c([C@H](OC(C)(C)C)C(=O)O)c(N2CCC(C)(C)CC2)c1-c1ccc2c(c1)CCN(C[C@H]1C[C@@H]3C=C[C@H]1C3)C2 [Compound 7, (S)-2-(5-(2-((1R,2S,4R)-bicyclo[2.2.1]hept-5-en-2-ylmethyl)-1,2,3,4-tetrahydroisoquinolin-6-yl)-4-(4,4-dimethylpiperidin-1-yl)-2,6-dimethylpyridin-3-yl)-2-(tert-butoxy)acetic acid] | < 0.1 | –
7 | COc1ccc(CN2CCc3cc(-c4c(C)nc(C)c([C@H](OC(C)(C)C)C(=O)O)c4N4CCC(C)(C)CC4)ccc3C2)cn1 [Compound 47, (S)-2-(tert-butoxy)-2-(4-(4,4-dimethylpiperidin-1-yl)-5-(2-((6-methoxypyridin-3-yl)methyl)-1,2,3,4-tetrahydroisoquinolin-6-yl)-2,6-dimethylpyridin-3-yl)acetic acid] | < 0.1 | 0.002
8 | Cc1nc(C)c([C@H](OC(C)(C)C)C(=O)O)c(N2CCC(C)(C)CC2)c1-c1ccc2c(c1)CCN(CC1C[C@@H]3CC[C@H]1C3)C2 (stereo partly drawn) [Compound 2, (2S)-2-(5-(2-((1S,4R)-bicyclo[2.2.1]heptan-2-ylmethyl)-1,2,3,4-tetrahydroisoquinolin-6-yl)-4-(4,4-dimethylpiperidin-1-yl)-2,6-dimethylpyridin-3-yl)-2-(tert-butoxy)acetic acid] | < 0.1 | –
9 | Cc1nc(C)c([C@H](OC(C)(C)C)C(=O)O)c(N2CCC(C)(C)CC2)c1-c1ccc2c(c1)CCN(Cc1cccnc1)C2 [Compound 11, (S)-2-(tert-butoxy)-2-(4-(4,4-dimethylpiperidin-1-yl)-2,6-dimethyl-5-(2-(pyridin-3-ylmethyl)-1,2,3,4-tetrahydroisoquinolin-6-yl)pyridin-3-yl)acetic acid] | < 0.1 | –
